Test results published in publication PMC11330417, “Insights into the transglucosylation activity of α-glucosidase from Schwanniomyces occidentalis” (Applied Microbiology and Biotechnology, 2024).

Molecular target: T1, α-glucosidase GAM1p (Schwanniomyces occidentalis, UniProt Q401B1, S845A)
T1 construct: gene GAM1; full-length gene with own signal peptide of 22 residues (960 aa precursor), no tag (native stop codon), AOX1 promoter vector pIB4, secreted by Komagataella phaffii GS115; glycosylated, about 143 kDa; concentrated on 50-kDa membrane
Test: HPLC-PAD, MS and NMR of glucosylated products
Assay type: biochemical
Conditions: glucosyl acceptor; 20 mM piceid, 300 g/L maltose as donor, 20% DMSO, sodium acetate pH 4.5, 37 °C

T1 sequence (Q401B1 entry or part of it S845A): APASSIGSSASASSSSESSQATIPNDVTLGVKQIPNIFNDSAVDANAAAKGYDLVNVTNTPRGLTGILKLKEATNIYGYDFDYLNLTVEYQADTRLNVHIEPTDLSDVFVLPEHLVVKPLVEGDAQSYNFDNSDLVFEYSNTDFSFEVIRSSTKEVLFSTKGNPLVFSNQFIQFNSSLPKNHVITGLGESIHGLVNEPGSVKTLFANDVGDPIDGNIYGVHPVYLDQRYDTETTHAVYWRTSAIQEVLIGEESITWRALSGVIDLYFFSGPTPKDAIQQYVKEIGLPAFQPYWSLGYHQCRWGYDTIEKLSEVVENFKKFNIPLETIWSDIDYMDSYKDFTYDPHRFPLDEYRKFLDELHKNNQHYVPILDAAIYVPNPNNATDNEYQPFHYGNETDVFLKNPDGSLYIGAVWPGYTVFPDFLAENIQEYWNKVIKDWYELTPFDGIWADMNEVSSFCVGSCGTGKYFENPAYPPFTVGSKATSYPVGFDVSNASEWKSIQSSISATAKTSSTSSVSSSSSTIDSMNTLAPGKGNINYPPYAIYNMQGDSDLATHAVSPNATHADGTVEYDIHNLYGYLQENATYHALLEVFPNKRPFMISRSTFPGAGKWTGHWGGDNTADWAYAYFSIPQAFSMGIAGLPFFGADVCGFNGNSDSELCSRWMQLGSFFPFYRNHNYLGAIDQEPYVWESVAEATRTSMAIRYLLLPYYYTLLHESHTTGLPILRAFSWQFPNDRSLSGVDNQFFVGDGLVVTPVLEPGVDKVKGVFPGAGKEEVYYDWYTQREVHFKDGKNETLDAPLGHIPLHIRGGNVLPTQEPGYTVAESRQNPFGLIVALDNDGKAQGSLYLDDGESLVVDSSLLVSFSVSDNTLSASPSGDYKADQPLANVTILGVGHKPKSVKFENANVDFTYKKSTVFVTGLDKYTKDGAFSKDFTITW

OC[C@H]1O[C@@H](Oc2cc(O)cc(/C=C/c3ccc(O)cc3)c2)[C@H](O)[C@@H](O)[C@@H]1O (mixture of isomers) [piceid]
HPLC-PAD, MS and NMR of glucosylated products: GAM1p was only able to glycosylate piceid (polydatin)
